Assay results from paper PMC6321646, “Evaluation of the Novel Synthetic Tyrosinase Inhibitor (Z)-3-(3-bromo-4-hydroxybenzylidene)thiochroman-4-one (MHY1498) In Vitro and In Silico” (Molecules, 2018).

Target: T1, mushroom tyrosinase (Agaricus bisporus, UniProt C7FF04)
T1 construct: gene PPO3
Test: dopachrome formation at […] nm, % inhibition at […]
Type: biochemical
Conditions: read-out: 50μM / Mean ± SD (%)

T1 sequence (C7FF04 2-392): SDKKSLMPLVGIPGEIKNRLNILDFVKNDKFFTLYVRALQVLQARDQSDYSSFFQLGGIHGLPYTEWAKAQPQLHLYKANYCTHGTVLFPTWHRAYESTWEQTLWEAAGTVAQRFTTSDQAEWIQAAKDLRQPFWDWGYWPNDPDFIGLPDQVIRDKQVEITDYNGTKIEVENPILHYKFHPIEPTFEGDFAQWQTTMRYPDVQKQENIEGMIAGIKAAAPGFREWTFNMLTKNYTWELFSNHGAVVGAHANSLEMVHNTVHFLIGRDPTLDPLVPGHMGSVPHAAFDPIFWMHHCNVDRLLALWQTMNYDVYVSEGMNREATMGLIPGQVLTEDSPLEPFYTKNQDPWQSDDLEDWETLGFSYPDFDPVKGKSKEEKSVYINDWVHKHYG

inhibition at 50 µM [%] | SMILES
81.6 ± 1 | O=C1/C(=C/c2ccc(O)cc2)CSc2ccccc21 [a]
91.5 ± 6.2 | COc1ccc(/C=C2\CSc3ccccc3C2=O)cc1O [d]
